Results published in patent US8952024B2, “Herbicidal pyrimidone derivatives” (E I du Pont de Nemours and Company, priority 2009, dated 2015).
Where two headings read alike, the source gives them in different places.

What was measured:
Assay type in all cases: in vivo
[1] = test system: barnyardgrass (Echinochloa crus-galli); experiment: Test B flooded paddy test; conditions: Echinochloa crus-galli, 360 h
Summary of the method: (§1)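 Flooded-pot test: water raised to 3 cm above soil when treating, compound put in the water, level unchanged thereafter. Plants were at 2 leaves. Readout after 13 to 15 days, visual, relative to controls; 0 signifies no effect and 100 complete control.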

[2] = test system: umbrella sedge (Cyperus difformis); experiment: Test B flooded paddy test; conditions: Cyperus difformis, 360 h
Summary of the method: as §1

[3] = test system: rice (Oryza sativa); experiment: Test B flooded paddy test; conditions: Oryza sativa
Summary of the method: as §1

[4] = test system: ducksalad (Heteranthera limosa); experiment: Test B flooded paddy test; conditions: Heteranthera limosa, 360 h
Summary of the method: as §1

[5] = test system: barnyardgrass (Echinochloa crus-galli); experiment: Test A pre-/postemergence plant response; conditions: Echinochloa crus-galli, 240 h; for pest or weed control at 125 g/ha: 125 g ai/ha; for pest or weed control at 500 g/ha: 500 g ai/ha
Summary of the method: (§2)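 Greenhouse trial, ~10 days. Soil (loam/sand) sprayed preemergence after seeding; emerged plants (1–2 leaf, 2–10 cm) sprayed postemergence in parallel. Response = visual injury vs untreated control, 0–100.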

[6] = test system: morningglory (Ipomoea spp.); experiment: Test A pre-/postemergence plant response; conditions: Ipomoea, 240 h; for pest or weed control at 125 g/ha: 125 g ai/ha; for pest or weed control at 500 g/ha: 500 g ai/ha
Summary of the method: as §2

[7] = test system: wheat (Triticum aestivum); experiment: Test A pre-/postemergence plant response; conditions: Triticum aestivum, 240 h; for plant injury at 125 g/ha: 125 g ai/ha; for plant injury at 500 g/ha: 500 g ai/ha
Summary of the method: as §2

[8] = test system: corn (Zea mays); experiment: Test A pre-/postemergence plant response; conditions: Zea mays, 240 h; for Corn plant response rating (crop injury, 0 = no effect, 100 = complete kill) at 500 g/ha: 500 g ai/ha
Summary of the method: as §2

[9] = test system: pigweed (Amaranthus retroflexus); experiment: Test A pre-/postemergence plant response; conditions: Amaranthus retroflexus, 240 h; for pest or weed control at 125 g/ha: 125 g ai/ha; for pest or weed control at 500 g/ha: 500 g ai/ha
Summary of the method: as §2

[10] = test system: velvetleaf (Abutilon theophrasti); experiment: Test A pre-/postemergence plant response; conditions: Abutilon theophrasti, 240 h; for pest or weed control at 125 g/ha: 125 g ai/ha; for pest or weed control at 500 g/ha: 500 g ai/ha
Summary of the method: as §2

[11] = test system: large crabgrass (Digitaria sanguinalis); experiment: Test A pre-/postemergence plant response; conditions: Digitaria sanguinalis, 240 h; for pest or weed control at 125 g/ha: 125 g ai/ha; for pest or weed control at 500 g/ha: 500 g ai/ha
Summary of the method: as §2

[12] = test system: giant foxtail (Setaria faberii); experiment: Test A pre-/postemergence plant response; conditions: Setaria faberi, 240 h; for pest or weed control at 125 g/ha: 125 g ai/ha; for pest or weed control at 500 g/ha: 500 g ai/ha
Summary of the method: as §2

COc1ccc(-n2c(-c3ccccc3)ncc(C(=O)C3=C(O)CCCC3=O)c2=O)cc1 [Compound 4, 5-[(2-hydroxy-6-oxo-cyclohexen-1-yl)carbonyl]-3-(4-methoxyphenyl)-2-phenyl-4(3H)-pyrimidinone]
pest or weed control at 250 g/ha ([1]; 250 g ai/ha, flooded paddy test, visual rating on 0 to 100 scale (0 no effect, 100 complete control) after 13 to 15 days, read-out: Plant response rating, Flood, Barnyardgrass): 20% | pest or weed control at 31 g/ha ([1]; Flood (flooded paddy test), 31 g ai/ha, scale of 0 to 100 where 0 is no effect and 100 is complete control, 13 to 15 days, read-out: Plant response rating, Barnyardgrass): 0% | pest or weed control at 62 g/ha ([1]; Flood (flooded paddy test), 62 g ai/ha, scale 0 to 100, 0 is no effect, 100 is complete control, 13 to 15 days, read-out: Plant response rating, Barnyardgrass): 0% | pest or weed control at 125 g/ha ([1]; Flood (flooded paddy test), 125 g ai/ha, scale 0 to 100, 0 is no effect, 100 is complete control, 13 to 15 days, read-out: Plant response rating, Barnyardgrass): 0% | pest or weed control at 250 g/ha ([2]; 250 g ai/ha, flooded paddy test, visual rating on 0 to 100 scale (0 no effect, 100 complete control) after 13 to 15 days, read-out: Plant response rating, Flood, Sedge, Umbrella): 90% | pest or weed control at 31 g/ha ([2]; Flood (flooded paddy test), 31 g ai/ha, scale of 0 to 100 where 0 is no effect and 100 is complete control, 13 to 15 days, read-out: Plant response rating, Sedge, Umbrella): 50% | pest or weed control at 62 g/ha ([2]; Flood (flooded paddy test), 62 g ai/ha, scale 0 to 100, 0 is no effect, 100 is complete control, 13 to 15 days, read-out: Plant response rating, Sedge, Umbrella): 65% | pest or weed control at 125 g/ha ([2]; Flood (flooded paddy test), 125 g ai/ha, scale 0 to 100, 0 is no effect, 100 is complete control, 13 to 15 days, read-out: Plant response rating, Sedge, Umbrella): 80% | plant injury at 250 g/ha ([3]; 250 g ai/ha, flooded paddy test, visual rating on 0 to 100 scale (0 no effect, 100 complete control) after 13 to 15 days, read-out: Plant response rating, Flood, Rice): 0% | plant injury at 31 g/ha ([3]; Flood (flooded paddy test), 31 g ai/ha, scale of 0 to 100 where 0 is no effect and 100 is complete control, 13 to 15 days, read-out: Plant response rating, Rice): 0% | plant injury at 62 g/ha ([3]; Flood (flooded paddy test), 62 g ai/ha, scale 0 to 100, 0 is no effect, 100 is complete control, 13 to 15 days, read-out: Plant response rating, Rice): 0% | plant injury at 125 g/ha ([3]; Flood (flooded paddy test), 125 g ai/ha, scale 0 to 100, 0 is no effect, 100 is complete control, 13 to 15 days, read-out: Plant response rating, Rice): 0% | pest or weed control at 250 g/ha ([4]; 250 g ai/ha, flooded paddy test, visual rating on 0 to 100 scale (0 no effect, 100 complete control) after 13 to 15 days, read-out: Plant response rating, Flood, Ducksalad): 85% | pest or weed control at 31 g/ha ([4]; Flood (flooded paddy test), 31 g ai/ha, scale of 0 to 100 where 0 is no effect and 100 is complete control, 13 to 15 days, read-out: Plant response rating, Ducksalad): 20% | pest or weed control at 62 g/ha ([4]; Flood (flooded paddy test), 62 g ai/ha, scale 0 to 100, 0 is no effect, 100 is complete control, 13 to 15 days, read-out: Plant response rating, Ducksalad): 40% | pest or weed control at 125 g/ha ([4]; Flood (flooded paddy test), 125 g ai/ha, scale 0 to 100, 0 is no effect, 100 is complete control, 13 to 15 days, read-out: Plant response rating, Ducksalad): 75% | pest or weed control at 125 g/ha ([5]; post-emergence, Postemergence, visual injury, 0 to 100 scale (0 no effect, 100 complete control), approx. ten days, read-out: Barnyardgrass plant response rating): 90% | pest or weed control at 500 g/ha ([5]; post-emergence, Postemergence, 0 to 100 scale, 0 = no effect, 100 = complete control, approx. ten days, read-out: Plant response rating, Barnyardgrass): 100% | pest or weed control at 125 g/ha ([5]; pre-emergence, Preemergence, 0 to 100 scale, 0 = no effect, 100 = complete control, read-out: Plant response rating, Barnyardgrass): 10% | pest or weed control at 500 g/ha ([5]; pre-emergence, Preemergence, visual injury, 0 to 100 scale (0 no effect, 100 complete control), approx. ten days, read-out: Plant response rating, Barnyardgrass): 70% | pest or weed control at 125 g/ha ([6]; post-emergence, Postemergence, visual injury, 0 to 100 scale (0 no effect, 100 complete control), approx. ten days, read-out: Morningglory plant response rating): 100% | pest or weed control at 500 g/ha ([6]; post-emergence, Postemergence, 0 to 100 scale, 0 = no effect, 100 = complete control, approx. ten days, read-out: Plant response rating, Morningglory): 100% | pest or weed control at 125 g/ha ([6]; pre-emergence, Preemergence, 0 to 100 scale, 0 = no effect, 100 = complete control, read-out: Plant response rating, Morningglory): 0% | pest or weed control at 500 g/ha ([6]; pre-emergence, Preemergence, visual injury, 0 to 100 scale (0 no effect, 100 complete control), approx. ten days, read-out: Plant response rating, Morningglory): 70% | plant injury at 125 g/ha ([7]; post-emergence, Postemergence, visual injury, 0 to 100 scale (0 no effect, 100 complete control), approx. ten days, read-out: Wheat plant response rating): 0% | plant injury at 500 g/ha ([7]; post-emergence, Postemergence, 0 to 100 scale, 0 = no effect, 100 = complete control, approx. ten days, read-out: Plant response rating, Wheat): 60% | plant injury at 125 g/ha ([7]; pre-emergence, Preemergence, 0 to 100 scale, 0 = no effect, 100 = complete control, read-out: Plant response rating, Wheat): 0% | plant injury at 500 g/ha ([7]; pre-emergence, Preemergence, visual injury, 0 to 100 scale (0 no effect, 100 complete control), approx. ten days, read-out: Plant response rating, Wheat): 20% | plant injury at 125 g/ha ([8]; post-emergence, Postemergence, 125 g ai/ha, visual injury, 0 to 100 scale (0 no effect, 100 complete control), approx. ten days, read-out: Corn plant response rating): 10% | Corn plant response rating (crop injury, 0 = no effect, 100 = complete kill) at 500 g/ha ([8]; post-emergence, Postemergence, 0 to 100 scale, 0 = no effect, 100 = complete control, approx. ten days): 50% | Corn plant response rating (crop injury, 0 = no effect, 100 = complete kill) at 125 g/ha ([8]; pre-emergence, Preemergence, 125 g ai/ha, 0 to 100 scale, 0 = no effect, 100 = complete control): 0% | Corn plant response rating (crop injury, 0 = no effect, 100 = complete kill) at 500 g/ha ([8]; pre-emergence, Preemergence, visual injury, 0 to 100 scale (0 no effect, 100 complete control), approx. ten days): 20% | pest or weed control at 125 g/ha ([9]; post-emergence, Postemergence, visual injury, 0 to 100 scale (0 no effect, 100 complete control), approx. ten days, read-out: Pigweed plant response rating): 100% | pest or weed control at 500 g/ha ([9]; post-emergence, Postemergence, 0 to 100 scale, 0 = no effect, 100 = complete control, approx. ten days, read-out: Plant response rating, Pigweed): 100% | pest or weed control at 125 g/ha ([9]; pre-emergence, Preemergence, 0 to 100 scale, 0 = no effect, 100 = complete control, read-out: Plant response rating, Pigweed): 90% | pest or weed control at 500 g/ha ([9]; pre-emergence, Preemergence, visual injury, 0 to 100 scale (0 no effect, 100 complete control), approx. ten days, read-out: Plant response rating, Pigweed): 90% | pest or weed control at 125 g/ha ([10]; post-emergence, Postemergence, visual injury, 0 to 100 scale (0 no effect, 100 complete control), approx. ten days, read-out: Velvetleaf plant response rating): 100% | pest or weed control at 500 g/ha ([10]; post-emergence, Postemergence, 0 to 100 scale, 0 = no effect, 100 = complete control, approx. ten days, read-out: Plant response rating, Velvetleaf): 100% | pest or weed control at 125 g/ha ([10]; pre-emergence, Preemergence, 0 to 100 scale, 0 = no effect, 100 = complete control, read-out: Plant response rating, Velvetleaf): 40% | pest or weed control at 500 g/ha ([10]; pre-emergence, Preemergence, visual injury, 0 to 100 scale (0 no effect, 100 complete control), approx. ten days, read-out: Plant response rating, Velvetleaf): 100% | pest or weed control at 125 g/ha ([11]; post-emergence, Postemergence, visual injury, 0 to 100 scale (0 no effect, 100 complete control), approx. ten days, read-out: Crabgrass, Large plant response rating): 70% | pest or weed control at 500 g/ha ([11]; post-emergence, Postemergence, 0 to 100 scale, 0 = no effect, 100 = complete control, approx. ten days, read-out: Plant response rating, Crabgrass, Large): 90% | pest or weed control at 125 g/ha ([11]; pre-emergence, Preemergence, 0 to 100 scale, 0 = no effect, 100 = complete control, read-out: Plant response rating, Crabgrass, Large): 20% | pest or weed control at 500 g/ha ([11]; pre-emergence, Preemergence, visual injury, 0 to 100 scale (0 no effect, 100 complete control), approx. ten days, read-out: Plant response rating, Crabgrass, Large): 90% | pest or weed control at 125 g/ha ([12]; post-emergence, Postemergence, visual injury, 0 to 100 scale (0 no effect, 100 complete control), approx. ten days, read-out: Foxtail, Giant plant response rating): 80% | pest or weed control at 500 g/ha ([12]; post-emergence, Postemergence, 0 to 100 scale, 0 = no effect, 100 = complete control, approx. ten days, read-out: Plant response rating, Foxtail, Giant): 90% | pest or weed control at 125 g/ha ([12]; pre-emergence, Preemergence, 0 to 100 scale, 0 = no effect, 100 = complete control, read-out: Plant response rating, Foxtail, Giant): 10% | pest or weed control at 500 g/ha ([12]; pre-emergence, Preemergence, visual injury, 0 to 100 scale (0 no effect, 100 complete control), approx. ten days, read-out: Plant response rating, Foxtail, Giant): 70%
